Results: US11078213B2, “Thienopyrimidine compound, preparation method thereof, pharmaceutical composition and application thereof” (HONGYUN BIOTECH CO., LTD., priority 2016, dated 2021)
pIC50: −log10 of the molar value.

How the values were obtained:
[1] = biological target: EML4-ALK-S1206Y BaF3 cells (Homo sapiens, UniProt Q9UM73, S1206Y); experiment: Growth inhibition of BaF3 cells stably transfected with ALK point mutation S1206Y; conditions: read-out: Growth inhibitory activity IC50, EML4-ALK-S1206Y
EML4-ALK-S1206Y BaF3 cells, sequence (Q9UM73 1058-1620 S1206Y limits assumed): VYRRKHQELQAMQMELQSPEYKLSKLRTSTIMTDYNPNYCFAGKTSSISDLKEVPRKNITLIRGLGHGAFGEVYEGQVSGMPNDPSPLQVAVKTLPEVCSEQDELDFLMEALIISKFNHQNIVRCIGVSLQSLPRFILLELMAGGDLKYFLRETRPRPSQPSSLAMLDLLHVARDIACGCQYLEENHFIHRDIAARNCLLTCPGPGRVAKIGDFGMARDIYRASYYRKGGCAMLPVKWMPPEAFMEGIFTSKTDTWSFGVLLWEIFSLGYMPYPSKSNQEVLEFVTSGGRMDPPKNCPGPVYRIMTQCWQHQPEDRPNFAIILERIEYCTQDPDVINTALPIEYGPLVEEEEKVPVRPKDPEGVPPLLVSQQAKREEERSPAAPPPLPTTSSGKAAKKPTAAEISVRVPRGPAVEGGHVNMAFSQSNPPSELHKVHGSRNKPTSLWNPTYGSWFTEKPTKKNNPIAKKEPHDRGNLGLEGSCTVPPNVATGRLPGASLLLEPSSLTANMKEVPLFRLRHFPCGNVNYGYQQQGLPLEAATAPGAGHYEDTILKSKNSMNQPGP
Experimental: (§6) The cell plate with uniformly mixed compound was cultured in a cell culture incubator (37° C.; 5% CO2) for 48 h, then 20 μL of MTS reaction solution was added, uniformly mixed and incubated in the cell culture incubator (37° C.; 5% CO2) for 1-4 hr; OD values at 490 nm were measured by a microplate reader (VARIOSKAN FLASH, Thermo). Three parallels were set in each group of experiments, with 0.1% (a final concentration) DMSO as a negative control, and a medium without cells or compounds as a blank control.
(§7) 4) IC50 calculation: The semi-inhibitory concentration of the compound acting on cell growth was calculated using GradPad Prism 5 software according to the measured cell growth inhibition rate.

[2] = biological target: T1, EML4-ALK(G1202R)-Ba/F3 xenograft (Homo sapiens, UniProt Q9UM73, G1202R); experiment: Nude mouse xenograft model of EML4-ALK(G1202R)-Ba/F3; type: in vivo, BALB/c (nu/nu) nude mice; conditions: 10 consecutive days
T1 construct: EML4 (Q9HC35) fusion partner; expressed in transfected cells; host or cells: Ba/F3; the other entry of the earlier key: EML4 (Q9HC35, Echinoderm microtubule-associated protein-like 4)
T1 sequence (Q9UM73 1058-1620 G1202R limits assumed): as the sequence (Q9UM73 1058-1620 S1206Y limits assumed) above, with G145R, Y149S counted along it
Experimental: (§1) In this test, BALB/c (nu/nu) nude mice were used, male and female in half, 4-6 weeks old, weighing about 18±2 g, and fed in SPF level environment, strictly sterile operation. The animals to be tested were adapted to the experimental environment 1 week in advance, free access to food and water, and maintained a 12-hour circadian rhythm.
The EML4-ALK(G1202R)-Ba/F3 cells used in the test were cultured with 10% fetal bovine serum in PRMI-1640 medium, and placed in a 37° C., 5% CO2 incubator environment.
A subcutaneous transplantation model of tumor nude mice was established by using cell inoculation method: cells in logarithmic growth phase were collected by filtration, washed with PBS after centrifugation, and resuspended as a single cell suspension with PRMI-1640 medium, 1×10^6 cells/200 μL per nude mouse. The cell suspension was injected subcutaneously in the vicinity of right anterior axillary of a nude mouse using a 1 mL syringe (No. 4.5 needle). When the tumor of tumor-bearing mice grew to a measurable size, the tumor volume was measured daily. When the tumor volume reached about 150 mm^3, the mice were randomly divided into 3 groups, 8 mice each group, and administration was started on the day of grouping. The administration component was IB-1 60 mg/kg (once/day), 40 mg/kg (twice/day, bid), orally administered for 10 consecutive days, and negative control group was administered an equal amount of solvent. Animal weight and tumor size were measured daily during the test. The state of the mice was recorded daily. After the last administration, the mice were anesthetized with 5% chloral hydrate and killed 6 hours. The tumors were taken, weighed and photographed for recording. Tumor Volume (TV) was calculated as: TV=½×a×b^2, where a, b represent long diameter and short diameter of tumor, respectively.

[3] = tested on: kinase ALK-positive lung cancer cell line H3122; experiment: Growth inhibitory activity on tumor cells H3122; type: cell-based
Experimental: (§2) If the tumor cells tested were suspension cells, the assay was carried out in accordance with the method (1) above.
(§3) If the tumor cells tested were adherent cells, cells were incubated 1000-10000 cells/well in a 96-well culture plate until adherent, and then compounds were added. Others were carried out in accordance with the method (1) above.

[4] = tested on: NCI-H3122 xenograft; experiment: Nude mouse xenograft model of non-small cell lung cancer H3122 cells; type: in vivo, BALB/c (nu/nu) nude mice; conditions: 18 consecutive days
Experimental: as §1
The NCI-H3122 cells used in the test were cultured with 10% fetal bovine serum in PRMI-1640 medium, and placed in a 37° C., 5% CO2 incubator environment.
A subcutaneous transplantation model of tumor nude mice was established by using cell inoculation method: cells in logarithmic growth phase were collected by filtration, washed with PBS after centrifugation, and resuspended as a single cell suspension with PRMI-1640 medium, 5×10^6 cells/200 μL per nude mouse. The cell suspension was injected subcutaneously in the vicinity of right anterior axillary of a nude mouse using a 1 mL syringe (No. 4.5 needle). When the tumor of tumor-bearing mice grew to a measurable size, the tumor volume was measured daily. When the tumor volume reached about 150 mm^3, the mice were randomly divided into 4 groups, 5 mice each group, and administration was started on the day of grouping. […] The administration was conducted for 18 consecutive days. Animal weight and tumor size were measured every other day during the test. The state of the mice was recorded daily. After the last administration, the mice were anesthetized with 5% chloral hydrate and killed 6 hours. The tumors were taken, weighed and photographed for recording. Tumor Volume (TV) was calculated as: TV=½×a×b^2, where a, b represent long diameter and short diameter of tumor, respectively.

[5] = biological target: T2, EML4-ALK-BaF3 (Homo sapiens, UniProt Q9UM73); experiment: Growth inhibition of BaF3 cells stably transfected with kinase EML4-ALK (MTS); type: cell-based; conditions: compound concentration 3.3 μM, read-out: cell growth inhibition rate, EML4-ALK
T2 construct: EML4 (echinoderm microtubule associated protein like 4, Q9HC35) fusion partner; expressed in transfected cells; host or cells: BaF3; the other entry of the earlier key: EML4 (Q9HC35, Echinoderm microtubule-associated protein-like 4)
T2 sequence (Q9UM73 1058-1620 limits assumed): as the sequence (Q9UM73 1058-1620 S1206Y limits assumed) above, with Y149S counted along it
Experimental: (§4) The specific test method is given as follows:
(§5) 2) Reagent: MTS reaction solution (containing 2 mg/mL of MTS [3-(4,5-dimethylthiazol-2-yl)-5-(3-carboxymethoxyphenyl)-2-(4-sulfophenyl)-2H-tetra zolium, inner Salt]; 100 µg/mL PES ([…])).

[6] = biological target: EML4-ALK-G1269A BaF3 cells (Homo sapiens, UniProt Q9UM73, G1269A); experiment: Growth inhibition of BaF3 cells stably transfected with ALK point mutation G1269A; conditions: read-out: Growth inhibitory activity IC50, EML4-ALK-G1269A
EML4-ALK-G1269A BaF3 cells, sequence (Q9UM73 1058-1620 G1269A limits assumed): as the sequence (Q9UM73 1058-1620 S1206Y limits assumed) above, with Y149S, G212A counted along it
Experimental: as §6, §7

[7] = biological target: EML4-ALK-G1202R BaF3 cells (Homo sapiens, UniProt Q9UM73, G1202R); experiment: Growth inhibition of BaF3 cells stably transfected with ALK point mutation G1202R; conditions: read-out: Growth inhibitory activity IC50, EML4-ALK-G1202R
EML4-ALK-G1202R BaF3 cells, sequence (Q9UM73 1058-1620 G1202R limits assumed): as the sequence (Q9UM73 1058-1620 S1206Y limits assumed) above, with G145R, Y149S counted along it
Experimental: as §6, §7

[8] = biological target: T3, NPM-ALK-BaF3 (Homo sapiens, UniProt Q9UM73); experiment: Growth inhibition of BaF3 cells stably transfected with kinase NPM-ALK (MTS); type: cell-based; conditions: compound concentration 3.3 μM, read-out: cell growth inhibition rate, NPM-ALK
T3 construct: NPM (nuclear phosphoprotein / nucleophosmin, NPM1, P06748) fusion partner; expressed in transfected cells; host or cells: BaF3; the other entry of the earlier key: NPM1 (P06748, Nucleophosmin)
T3 sequence (Q9UM73 with tags, fused parts or gaps): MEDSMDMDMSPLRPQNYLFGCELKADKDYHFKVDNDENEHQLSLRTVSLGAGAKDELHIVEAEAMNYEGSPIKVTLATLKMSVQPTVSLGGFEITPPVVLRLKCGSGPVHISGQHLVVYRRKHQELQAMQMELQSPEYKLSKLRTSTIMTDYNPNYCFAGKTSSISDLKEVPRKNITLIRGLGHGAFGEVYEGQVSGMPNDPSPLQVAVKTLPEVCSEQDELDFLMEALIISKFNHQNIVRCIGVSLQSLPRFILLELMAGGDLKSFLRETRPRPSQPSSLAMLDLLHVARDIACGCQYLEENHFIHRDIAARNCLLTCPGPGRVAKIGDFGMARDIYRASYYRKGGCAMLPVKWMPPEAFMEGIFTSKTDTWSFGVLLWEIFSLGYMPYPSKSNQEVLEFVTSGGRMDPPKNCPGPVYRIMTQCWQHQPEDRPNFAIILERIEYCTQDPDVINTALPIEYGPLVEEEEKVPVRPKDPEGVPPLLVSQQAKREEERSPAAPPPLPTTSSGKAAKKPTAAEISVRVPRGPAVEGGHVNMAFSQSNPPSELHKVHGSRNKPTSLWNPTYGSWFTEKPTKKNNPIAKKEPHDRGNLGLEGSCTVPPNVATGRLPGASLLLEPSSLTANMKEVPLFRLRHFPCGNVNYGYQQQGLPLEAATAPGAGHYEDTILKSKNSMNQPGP
Experimental: as §4, §5

[9] = tested on: anaplastic large cell lymphoma Karpas-299; experiment: Growth inhibitory activity on tumor cells Karpas-299; type: cell-based
Experimental: as §2, §3

[10] = tested on: wild-type BaF3; experiment: Growth inhibition of wild-type BaF3 cells (broad-spectrum toxicity); type: cell-based; conditions: Mus musculus, read-out: Growth inhibitory activity IC50, BaF3
Experimental: as §6, §7

[11] = biological target: EML4-ALK-I1171T BaF3 cells (Homo sapiens, UniProt Q9UM73, I1171T); experiment: Growth inhibition of BaF3 cells stably transfected with ALK point mutation I1171T; conditions: read-out: Growth inhibitory activity IC50, EML4-ALK-I1171T
EML4-ALK-I1171T BaF3 cells, sequence (Q9UM73 1058-1620 I1171T limits assumed): as the sequence (Q9UM73 1058-1620 S1206Y limits assumed) above, with I114T, Y149S counted along it
Experimental: as §6, §7

- pIC50 [1]: > 8.40
- tumor growth ([2]; 40 mg/kg (twice/day, bid) orally): significantly inhibited tumor growth
- tumor growth ([2]; 60 mg/kg (once/day) orally): significantly inhibited tumor growth
- pIC50 ([3]; Homo sapiens, NCI-H3122, H3122 tumor cells): 7.82
- inhibition at 3.3 µM [5]: 87.3%
- pIC50 [6]: > 8.40
- pIC50 [7]: 8.00
- inhibition at 3.3 µM [8]: 96.7%
- pIC50 ([9]; Homo sapiens, Karpas-299 tumor cells): > 8.40
- pIC50 [11]: > 8.40
Structure (SMILES): COc1cc2c(cc1Nc1nc(Nc3ccccc3S(=O)(=O)C(C)C)c3sccc3n1)N(C(=O)CN(C)C)CC2 [IB-1]
- body weight during administration ([2]; drug group): no significant changes in body weight
- side effects ([2]; drug group): no obvious side effects
- inhibitory activity against H3122 (in words) [3]: good inhibitory activity
- tumor growth ([4]; 30 mg/kg (once/day) orally): significantly inhibited tumor growth
- tumor growth ([4]; 50 mg/kg (once/day) orally): significantly inhibited tumor growth
- body weight during administration ([4]; drug group): no significant changes in body weight
- side effects ([4]; drug group): no obvious side effects
- inhibitory activity against Karpas-299 (in words) [9]: good inhibitory activity
- pIC50 [10]: 5.80
